Measured values as given in patent publication US12528761B2, “Thyromimetics” (Autobahn Therapeutics, Inc., priority 2020, dated 2026).
Where two headings read alike, the source gives them in different places.

How the values were obtained:
TRα = target: T1, TRα (Homo sapiens, UniProt P10827); experiment: TR reporter-gene assay (Gal4 DBD hybrid, luciferase), TRα; assay type: cell-based
T1 construct: expressed in transfected cells; host or cells: HEK293
T1 sequence (P10827 1-410 isoform P10827-2): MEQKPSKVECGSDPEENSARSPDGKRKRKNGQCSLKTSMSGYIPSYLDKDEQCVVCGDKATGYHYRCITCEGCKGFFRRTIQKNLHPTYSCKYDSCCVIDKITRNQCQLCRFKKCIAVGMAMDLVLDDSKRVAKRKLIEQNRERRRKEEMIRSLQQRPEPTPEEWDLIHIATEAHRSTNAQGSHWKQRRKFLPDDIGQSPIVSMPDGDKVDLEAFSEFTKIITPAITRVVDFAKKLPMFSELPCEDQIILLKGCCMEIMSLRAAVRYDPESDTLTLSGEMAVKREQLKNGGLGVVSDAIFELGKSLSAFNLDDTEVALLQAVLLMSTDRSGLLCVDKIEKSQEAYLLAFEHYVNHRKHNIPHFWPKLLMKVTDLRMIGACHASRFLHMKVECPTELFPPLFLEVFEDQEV
Protocol: (§1) Compounds were tested for thyroid-hormone receptor activity using TR reporter-gene assays. Reporter cells used in the assays express a TR-receptor hybrid (either TRα or TRβ) in which the native N-terminal DNA binding domain (DBD) has been replaced with that of the yeast Gal4 DBD. The reporter gene, firefly luciferase, is functionally linked to the Gal4 upstream activation sequence (UAS). Both cell lines were derived from human embryonic kidney (HEK293).
(§2) Step 1: A suspension of reporter cells was prepared in cell recovery medium containing 10% charcoal-stripped FBS, and dispensed into assay plates. The plates were pre-incubated for 6 hours in a cell culture incubator (37° C./5% CO2/85% humidity).
(§3) These intermediate stocks were subsequently diluted directly into compound screening medium containing 10% charcoal-stripped FBS to generate “2×-concentration” treatment media (containing 0.2, 0.4 or 0.8% DMSO).
(§4) Step 3: At the end of the pre-incubation period, culture media were discarded from the assay plates, and all wells received 100 μl of compound screening medium. 100 μl of each of the previously prepared “2×-concentration” treatment media were dispensed into duplicate assay wells, thereby achieving the desired final treatment concentrations. The final concentration of DMSO in all assay wells was 0.1, 0.2 or 0.4%. Assay plates were incubated for 24 hr in a cell culture incubator (37° C./5% CO2/85% humidity).
(§5) Step 4: At the 24 h assay endpoint, treatment media were discarded and 100 µl/well of luciferase detection reagent was added. Relative luminometer units (RLUs) were quantified from each assay well.

TRβ = target: T2, TRβ (Homo sapiens, UniProt P10828); experiment: TR reporter-gene assay (Gal4 DBD hybrid, luciferase), TRβ; assay type: cell-based; conditions: for T3-SI (selectivity index, EC50 (TRα)/EC50 (TRβ)): class symbols
T2 construct: expressed in transfected cells; host or cells: HEK293
T2 sequence (P10828 217-461 limits assumed): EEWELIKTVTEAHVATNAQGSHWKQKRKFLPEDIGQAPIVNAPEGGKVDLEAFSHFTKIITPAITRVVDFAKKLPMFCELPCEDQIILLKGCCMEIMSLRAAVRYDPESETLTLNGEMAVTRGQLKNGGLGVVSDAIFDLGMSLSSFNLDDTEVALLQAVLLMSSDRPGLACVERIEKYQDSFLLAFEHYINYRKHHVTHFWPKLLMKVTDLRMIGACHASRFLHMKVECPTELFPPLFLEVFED
Protocol: as §1, §2, §3, §4, §5

[1] = HEK293-derived reporter cells, 24 hr treatment, read-out: TRα EC50
[2] = HEK293-derived reporter cells, 24 hr treatment, read-out: TRβ EC50

EC50 (TRα; [1]) [nM]	EC50 (TRβ; [2]) [nM]	T3-SI (selectivity index, EC50 (TRα)/EC50 (TRβ)) (TRβ)	Compound	EC50 (TRα) [nM]	EC50 (TRβ) [nM]
100 to 1000	100 to 1000	++ (3× < T3-SI ≤ 30×)	Cc1cc(CSCC(=O)O)c(F)c(Cl)c1Cc1ccc(O)c(C(C)C)c1 [Compound 224, 2-((3-chloro-2-fluoro-4-(4-hydroxy-3-isopropylbenzyl)-5-methylbenzyl)thio)acetic acid]	–	–
< 10	< 10	++ (3× < T3-SI ≤ 30×)	CC(C)c1c(O)ccc(Cc2c(Cl)cc(CSCC(=O)O)cc2Cl)c1F [Compound 200, 2-((3,5-dichloro-4-(2-fluoro-4-hydroxy-3-isopropylbenzyl)benzyl)thio)acetic acid]	–	–
> 1000	> 1000	++ (3× < T3-SI ≤ 30×)	Cc1cc([S+]([O-])CC(=O)O)cc(Cl)c1Cc1ccc(O)c(C(C)C)c1 (stereo not shown) [Compound 244, 2-((3-chloro-4-(4-hydroxy-3-isopropylbenzyl)-5-methylphenyl)sulfinyl)acetic acid]	–	–
100 to 1000	100 to 1000	++ (3× < T3-SI ≤ 30×)	CC(C)c1cc(Cc2c(Cl)cc(CNCC(=O)O)c(F)c2Cl)ccc1O [Compound 152, (3,5-dichloro-2-fluoro-4-(4-hydroxy-3-isopropylbenzyl)benzyl)glycine]	–	–
100 to 1000	100 to 1000	++ (3× < T3-SI ≤ 30×)	Cc1cc(SCC(=O)O)cc(Cl)c1Cc1ccc(O)c(C(C)C)c1 [Compound 123, 2-((3-chloro-4-(4-hydroxy-3-isopropylbenzyl)-5-methylphenyl)thio)acetic acid]	–	–
10 to 100	10 to 100	++ (3× < T3-SI ≤ 30×)	CC(C)c1c(O)ccc(Cc2c(Cl)cc(CNCC(=O)O)c(F)c2Cl)c1F [Compound 153, (3,5-dichloro-2-fluoro-4-(2-fluoro-4-hydroxy-3-isopropylbenzyl)benzyl)glycine]	–	–
10 to 100	< 10	++ (3× < T3-SI ≤ 30×)	CC(c1ccc(F)cc1)c1cc(Cc2c(Cl)cc(CC(=O)O)cc2Cl)ccc1O (stereo not shown) [Compound 9, 2-(3,5-dichloro-4-(3-(1-(4-fluorophenyl)ethyl)-4-hydroxybenzyl)phenyl)acetic acid]	–	–
10 to 100	10 to 100	+ (T3-SI ≤ 3×)	CC(C)c1cc(Cc2c(Cl)cc(/C=C/C(=O)O)cc2Cl)ccc1O [Compound 86, (E)-3-(3,5-dichloro-4-(4-hydroxy-3-isopropylbenzyl)phenyl)acrylic acid]	–	–
10 to 100	100 to 1000	++ (3× < T3-SI ≤ 30×)	CC(C)c1cc(Cc2c(Cl)cc(CSCC(=O)O)cc2Cl)ccc1O [Compound 95, 2-((3,5-dichloro-4-(4-hydroxy-3-isopropylbenzyl)benzyl)thio)acetic acid]	–	–
> 1000	> 1000	++ (3× < T3-SI ≤ 30×)	Cc1cc(C[S+]([O-])CC(=O)O)cc(Cl)c1Cc1ccc(O)c(C(C)C)c1 (stereo not shown) [Compound 246, 2-((3-chloro-4-(4-hydroxy-3-isopropylbenzyl)-5-methylbenzyl)sulfinyl)acetic acid]	–	–
> 1000	–	–	CC(C)c1c(O)ccc(Cc2c(Cl)cc(N(C)CC(=O)O)cc2Cl)c1F [Compound 140, N-(3,5-dichloro-4-(2-fluoro-4-hydroxy-3-isopropylbenzyl)phenyl)-N-methylglycine]	–	–
–	> 1000	–	O=C(O)Cc1cc(Cl)c(Cc2ccc(O)c(C(=O)N3CCCCC3)c2)c(Cl)c1 [Compound 137, 2-(3,5-dichloro-4-(4-hydroxy-3-(piperidine-1-carbonyl)benzyl)phenyl)acetic acid]	–	–
100 to 1000	–	–	CC(=O)NOCc1cc(Cl)c(Cc2ccc(O)c(C(C)C)c2F)c(Cl)c1 [Compound 211, N-((3,5-dichloro-4-(2-fluoro-4-hydroxy-3-isopropylbenzyl)benzyl)oxy)acetamide]	–	–
10 to 100	–	–	O=C(O)CNc1cc(Cl)c(Cc2ccc(O)c(-c3cc(OC(F)F)ccc3F)c2F)c(Cl)c1 [Compound 139, (3,5-dichloro-4-((5′-(difluoromethoxy)-2,2′-difluoro-6-hydroxy-[1,1′-biphenyl]-3-yl)methyl)phenyl)glycine]	–	–
> 1000	–	–	CC(C)c1cc(Cc2c(Cl)cc(C(CC(=O)O)C(=O)O)cc2Cl)ccc1O (stereo not shown) [Compound 142, 2-(3,5-dichloro-4-(4-hydroxy-3-isopropylbenzyl)phenyl)succinic acid]	–	–

Second part, the molecule before the results:

Compound	EC50 (TRα; [1]) [nM]	EC50 (TRβ; [2]) [nM]	T3-SI (selectivity index, EC50 (TRα)/EC50 (TRβ)) (TRβ)	EC50 (TRα) [nM]	EC50 (TRβ) [nM]
CC(C)c1c(O)ccc(Cc2c(Cl)cc(SCC(=O)O)cc2Cl)c1F [Compound 203, 2-((3,5-dichloro-4-(2-fluoro-4-hydroxy-3-isopropylbenzyl)phenyl)thio)acetic acid]	10 to 100	10 to 100	++ (3× < T3-SI ≤ 30×)	–	–
Cc1cc(CSCC(=O)O)cc(Cl)c1Cc1ccc(O)c(C(C)C)c1 [Compound 124, 2-((3-chloro-4-(4-hydroxy-3-isopropylbenzyl)-5-methylbenzyl)thio)acetic acid]	10 to 100	10 to 100	++ (3× < T3-SI ≤ 30×)	–	–
CC(C)c1c(O)ccc(Cc2c(Cl)cc(CCC(=O)O)c(F)c2Cl)c1F [Compound 71, 3-(3,5-dichloro-2-fluoro-4-(2-fluoro-4-hydroxy-3-isopropylbenzyl)phenyl)propanoic acid]	10 to 100	10 to 100	++ (3× < T3-SI ≤ 30×)	–	–
CC(C)c1cc(Cc2c(Cl)cc(C[S+]([O-])CC(=O)O)cc2Cl)ccc1O (stereo not shown) [Compound 96, 2-((3,5-dichloro-4-(4-hydroxy-3-isopropylbenzyl)benzyl)sulfinyl)acetic acid]	> 1000	> 1000	+ (T3-SI ≤ 3×)	–	–
CC(C)c1cc(Cc2c(Cl)cc(NC(=O)CC(=O)O)cc2Cl)ccc1O [Compound 22, 3-((3,5-dichloro-4-(4-hydroxy-3-isopropylbenzyl)phenyl)amino)-3-oxopropanoic acid]	100 to 1000	100 to 1000	++ (3× < T3-SI ≤ 30×)	–	–
Cc1cc(NCC(=O)O)cc(Cl)c1Cc1ccc(O)c(C(C)C)c1 [Compound 125, (3-chloro-4-(4-hydroxy-3-isopropylbenzyl)-5-methylphenyl)glycine]	10 to 100	10 to 100	++ (3× < T3-SI ≤ 30×)	–	–
C[Si](C)(C)c1c(O)ccc(Cc2c(Cl)cc(CC(=O)O)c(F)c2Cl)c1F [Compound 151, 2-(3,5-dichloro-2-fluoro-4-(2-fluoro-4-hydroxy-3-(trimethylsilyl)benzyl)phenyl)acetic acid]	–	–	++ (3× < T3-SI ≤ 30×)	100 to 1000	100 to 1000
Cc1cc(SCC(=O)O)c(F)c(Cl)c1Cc1ccc(O)c(C(C)C)c1 [Compound 225, 2-((3-chloro-2-fluoro-4-(4-hydroxy-3-isopropylbenzyl)-5-methylphenyl)thio)acetic acid]	100 to 1000	100 to 1000	++ (3× < T3-SI ≤ 30×)	–	–
CC(C)c1cc(Cc2c(Cl)cc(COCC(=O)O)cc2Cl)ccc1O [Compound 28, 2-((3,5-dichloro-4-(4-hydroxy-3-isopropylbenzyl)benzyl)oxy)acetic acid]	10 to 100	10 to 100	++ (3× < T3-SI ≤ 30×)	–	–
O=C(O)Cc1cc(Cl)c(Cc2ccc(O)c(CN3CCCC3=O)c2)c(Cl)c1 [Compound 138, 2-(3,5-dichloro-4-(4-hydroxy-3-((2-oxopyrrolidin-1-yl)methyl)benzyl)phenyl)acetic acid]	> 1000	–	–	–	–
CC(C)c1c(O)ccc(Cc2c(Cl)cc(NC(=O)C(=O)O)cc2Cl)c1F [Compound 63, 2-((3,5-dichloro-4-(2-fluoro-4-hydroxy-3-isopropylbenzyl)phenyl)amino)-2-oxoacetic acid]	–	–	++ (3× < T3-SI ≤ 30×)	–	–
